Test results published in paper PMC10119282, “Molecular characterization of AIFM2/FSP1 inhibition by iFSP1-like molecules” (Cell Death & Disease, 2023).

How the values were obtained:
[1] = system: Pfa1 Gpx4−/− overexpressing chimeric FSP1 C3; assay: Cell viability (Alamar blue), chimeric construct C3; type: cell-based, murine; conditions: Mus musculus; chimeric construct C3 (human residues 121 to 180); x axis iFSP1 (μM); read-out: IC50 (dose-response toxicity)
Procedure: Cell Lines. 4-hydroxytamoxifen (TAM)-inducible Gpx4^−/− murine immortalized fibroblasts (Pfa1) were reported previously. These cells harbor two loxP-flanked Gpx4 alleles and stably express TAM inducible Cre recombinase allowing the genetic deletion of Gpx4 at will. For all experiments using Gpx4^−/− the well were treated with 4-hydroxitamoxifen (TAM) 1 µM. All cells were cultured with were cultured in DMEM-high glucose (4.5 g glucose/L) with 10% fetal bovine serum (FBS), Glutamax, and 1% penicillin/streptomycin (Gibco, Thermo Fischer) at 37 °C with 5% CO2 and verified to be negative for mycoplasma.
Cell viability assays. Alamar Blue method: Cells were seeded on 96-well plates (2000 cells per well) and treated with the compounds RSL3, iFSP1 and (liproxstatin-1) after plating. Cell viability was assessed 48 h (unless stated otherwise) after treatment using Alamar Blue as an indicator of viable cells. Alamar blue solution was made by dissolving of 1 g resazurin sodium salt (Thermo Fischer) in 200 mL sterile PBS and sterile filtrated through a 0.22 µm filter. Stock solutions were stored at 4 °C. The working solution was made freshly by adding 200 µL of the stock solution to 25 mL growth media. After 2–4 h incubation time, viability was estimated by measuring the fluorescence using a 540/35 excitation filter and a 590/20 emission on a Spark® microplate reader (Tecan, Zürich, Switzerland). […]

[2] = molecular target: T1, recombinant purified hFSP1 F360L mutant (Homo sapiens, UniProt Q9BRQ8, F360L); assay: NADH consumption assay (340 nm), FSP1 enzyme activity and inhibition; type: biochemical; conditions: iFSP1 2 µM; menadione as substrate
T1 construct: HisSUMO (cleaved yes); made in house; host or cells: E. coli BL21
Procedure: FSP1 (human isoform 1, UniProt Q9BRQ8-1) WT (hFSP1 WT) and F360L (hFSP1 F360L) were expressed in E.coli BL21 as HisSUMO fusion protein. Cells were grown in lysogeny broth medium at 18 °C and induced with 0.5 mM isopropyl-β-thiogalactoside at a cell density A600 of 0.6. Cells were collected after overnight expression by centrifugation, resuspended in lysis buffer ([…], 50 mM Tris-HCl pH 8, 1 mM TCEP, 20 mM imidazole, protease inhibitor, DNase) and lysed by sonication. Cell debris was removed by centrifugation (30,000 × g) at 4 °C for 30 min, after which an IMAC purification was performed. […] IMAC eluates were analysed by SDS PAGE and concentrated to 15 mL (hFSP1 WT) and 5 mL (hFSP1 F360L), respectively. […] Pure fractions were pooled (C12—D11 for hFSP1 WT and C7—D4 for hFSP1 F360L), analysed by SDS-PAGE (Supplementary Fig. 4) and concentrated to 5.8 mL at 285.9 µM (hFSP1 WT) and 1.2 mL at 269.5 µM (FSP1 F360L), flash frozen in liquid N2 and stored at −80 °C.
Enzyme reactions were performed in TBS buffer (50 mM TRIS pH 8, 250 mM NaCl) on a 96-well plate in a 100 µL final volume. […] Absorbance (340 nm) was recorded every 30 s on a Spark® microplate reader (Tecan, Zürich, Switzerland) in order to determine NADH consumption. […]

T1 sequence (Q9BRQ8 whole entry F360L): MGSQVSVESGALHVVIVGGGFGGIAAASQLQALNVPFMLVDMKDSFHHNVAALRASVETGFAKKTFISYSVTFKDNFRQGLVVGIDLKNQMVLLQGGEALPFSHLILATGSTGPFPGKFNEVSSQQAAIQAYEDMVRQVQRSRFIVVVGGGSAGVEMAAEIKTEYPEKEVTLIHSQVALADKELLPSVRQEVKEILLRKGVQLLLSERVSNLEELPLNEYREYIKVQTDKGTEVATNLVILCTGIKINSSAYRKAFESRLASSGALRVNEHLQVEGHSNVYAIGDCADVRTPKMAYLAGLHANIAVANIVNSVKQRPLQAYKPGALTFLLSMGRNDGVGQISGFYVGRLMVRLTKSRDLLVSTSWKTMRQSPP

Compound: Cc1ccc(-c2c(C#N)c(N)n3c(nc4ccccc43)c2C#N)cc1 [iFSP1]
- IC50 [1]: 8.71 µM
- inhibition of enzyme activity (NADH consumption) [2]: just the activity of the WT protein was inhibited by iFSP1
